Laboratory results from PMC12281424, “A Rac-specific competitive inhibitor of guanine nucleotide binding reduces metastasis in triple-negative breast cancer” (Cell Reports Medicine, 2025).

What was measured:
RAC1 [1] = target: RAC1 (Homo sapiens, UniProt P63000); test: Nucleotide exchange kinetics (mant-GTP/mant-GDP fluorescence); type: biochemical; set-up: Full-length RAC1 carrying a 6xHis tag in C-terminus was purified as previously described; 6xHis (C); made in house
Experimental: (§1) Figure 2 Identification of a new RAC1 inhibitor (A) Effect of A41 and NSC23766 on ruffle formation (white arrows) induced by EGF (10 ng/mL) in NIH 3T3 cells in serum-free culture medium (CTL). Inhibitors were added at indicated concentration 1 h prior to EGF stimulation. To assess cytoskeleton organization, cells were incubated with Alexa Fluor 488 phalloidin to visualize F-actin. Results shown are representative of 3 independent experiments. Corresponding concentration-response curves have been established by counting the percentages of cells with ruffles (scale bars: 10 μm). (B) Immunoblot analysis and associated quantification of RAC-GTP level and total RAC expression in NIH 3T3 cells stimulated by EGF (10 ng/mL, 5 min) and pre-incubated or not (−) with NSC23766, A41, or A415 at 10^−5 M for 1 h (∗∗∗p < 0.001 vs. controls without EGF stimulation, ^###p < 0.001 vs. controls with EGF stimulation) (N > 3). (C) Representative surface plasmon resonance (SPR) sensograms of binding of immobilized RAC1 with increasing concentrations of A41 with or without EDTA (20 mM) (N > 3). (D) Representative in vitro nucleotide exchange catalyzed by the DH-PH of TIAM (10 nM) measured by the binding of fluorescent mant-GTP (1 μM) to RAC1 (0.5 μM, preloaded with GDP) in the presence of indicated concentrations of A41 (out of N = 6). Dotted lines correspond to the experimental curves, and continuous lines represent the fit of experimental points. (E) Kobs and Kmax were determined in each condition (N = 6). (F) Predicted binding modes of A4 to the NSC23766-binding site (left) or the GDP-binding pocket of RAC1 (right). In the NSC23766-binding site of RAC1, the compound A4 (carbon atoms in blue) makes 2 hydrogen bonds (green dotted line) with Ser71 (S71) and 10 hydrophobic interactions (pink dotted line) with Ala3 (A3), Lys5 (K5), Val36 (V36), Trp56 (W56), Tyr64 (Y64), and Leu67 (L67) leading to a docking score of −6.03 kcal/mol. The GDP molecule is shown with fine line. The P loop is shown in yellow, the switch 1 in orange, and the switch 2 in green. In the GDP-binding pocket, A4 establishes 6 hydrogen bonds with Gly15 (G15), Lys16 (K16), Cys18 (C18), and Lys116 (K116), 1 carbon hydrogen bond with Lys116, and 9 hydrophobic interactions with Cys18, Ile33 (I33), Lys116, Leu119 (L119), and Leu160 (L160), resulting in a docking score of −10.32 kcal/mol.
Figure 3 Inhibitory mechanism of A41 (A–D) RAC1 activity was monitored by the change in mant-GTP/GDP fluorescence induced by its binding to or releasing from RAC1 (A–D). GDP-bound RAC1 (0.5 μM) was incubated with TRIO (10 nM) and the indicated concentrations of mant-GTP without and with A41 (5 μM) (A–C). Mant-GDP-bound RAC1 (0.5 μM) was incubated with TRIO (10 nM) and GTP (1 μM) without and with A41 (5 μM) (D). AU: arbitrary fluorescence units. All experiments were done in triplicate. Kmax and Kmin are expressed as mean ± SEM. ∗∗p < 0.01 and ∗∗∗p < 0.001 vs. TRIO. (E) Deconvoluted mass spectra generated from crude mass spectrum analyses to evaluate RAC1 photolabeling with [N3]-A41 by LC-HRMS on native protein. (F) Representative mass spectra of both labeled and unlabeled […] peptide during LC-HRMS analysis of RAC1 photolabeling with [N3]-A41 after trypsin digestion. (G) Predicted binding mode of A41 to the GDP-binding pocket of RAC1. Compound A41 (orange) makes 4 hydrogen bonds (green dotted line) with Lys16 (K16), Cys18 (C18), and Lys116 (K116), 2 carbon hydrogen bond (light green dotted line) with Val14 (V14) and Lys116 (K116), and 7 hydrophobic interactions (pink dotted line) with Cys18 (C18), Phe28 (F28), Lys116 (K116), Ala159 (A159), and Leu160 (L160). The P loop is shown in yellow, the switch 1 in orange, and the switch 2 in green.
Full-length RAC1 carrying a 6xHis tag in C-terminus was purified as previously described.[64] Full-length RAC2, RHOG, RHOA and CDC42 were purified as previously described.[64]^,[65] […]

[2] = test system: NIH/3T3 cell proliferation; test: Cell proliferation (xCELLigence); type: cell-based; details: 10^-5 M
Excerpt: (§2) Supplementary Fig. 3: Example of one pharmacophore model used for virtual screening. (a) The pharmacophore model shown was created based on RAC1 (grey) and NSC23766 (orange) interaction. The pharmacophore model is formed by two hydrogenbond acceptor(HBA)features,one orientedtowardsthe hydroxylgroup of Ser71 (S71) and the other towards the amine group of Gln74 (Q74), one hydrogen bond donor (HBD) feature pointed to the oxygenatom of Leu70 (L70) and two hydrophobic features (HY) located on certain carbon atoms of NSC23766 and facing residues Val36 (V36), Ala59 (A59), Tyr64 (Y64) and Leu67 (L67). The spheres correspond to locationconstraint. The pharmacophoremodel was completedby thirteen exclusion spheres centered on the main residues of RAC1 defining the binding site. The P loop, the switch 1 and the switch 2 are shown in yellow, orange and green respectively. (b) Impact of different screening molecules (10^-5 M) on NIH/3T3 cell adhesion (xCELLingence Real-time cellanalysis, Agilent), migration (CYTOO Mobility plates) and proliferation (xCELLingence Real-time cell analysis, Agilent) .The level of RAC activation is determinedby the detection of RAC-GTP (pull-down assay) in NIH/3T3 cell treated with EGF (10 ng/mL) and the differentmolecules and normalize to the level of RAC activity measuredin the presenceof the reference RAC inhibitor EHT1864.

NIH/3T3 cell adhesion = test: Cell adhesion assay (xCELLigence impedance); type: cell-based; details: 10^-5 M
Experimental: NIH3T3cells (10000/well) were seeded in a 96 well plate microtiter xCELLigence assay plate (E-Plate) (ACEA Biosciences Inc.) and placed on the Real-time xCELLigence Cell Analyzer (Roche Applied Science) platform at 37°C to measure the “cell index” every 5 min for a period of 6 h. The cell index unit is defined as (Rn − Rb)/15. Rn is the cell electrode impedance of the well when it contains cells. Rb is the background impedance of the well with the media alone.
Supplementary Fig. 3: Example of one pharmacophore model used for virtual screening. (a) The pharmacophore model shown was created based on RAC1 (grey) and NSC23766 (orange) interaction. […] (b) Impact of different screening molecules (10^-5 M) on NIH/3T3 cell adhesion (xCELLingence Real-time cellanalysis, Agilent), migration (CYTOO Mobility plates) and proliferation (xCELLingence Real-time cell analysis, Agilent) .The level of RAC activation is determinedby the detection of RAC-GTP (pull-down assay) in NIH/3T3 cell treated with EGF (10 ng/mL) and the differentmolecules and normalize to the level of RAC activity measuredin the presenceof the reference RAC inhibitor EHT1864.
(§3) Supplementary Fig. 4: A41 inhibits RAC-dependent cell functions. (a) Representative records of single NIH/3T3 cell migration on micropatterned fibronectin lines (CYTOO Mobility plates) in the absence (Control)and presenceA41 at 10^-5 M (left panel) and corresponding quantification of migration speed (right panel) (scale bar: 20µm). […] (b) Typical curves showing the cell index representing the adhesion of NIH/3T3 fibroblast (xCELLingence Real-time cell analysis, Agilent) under control condition (Control) and pre-treated with 10 µM A41 or NSC23766 (left panel) and corresponding quantification of cell adhesion speed (right panel). […]

[3] = test system: RAC1-GTP levels in MDA-MB-468 Luc cells; test: RAC-GTP immunofluorescence; type: cell-based; details: 10^-5 M, 1 h
Experimental: Luciferase (Luc, green) was used to detect the cells. […] (C) Quantification of colony number of indicated cancer cell lines in the presence of A41 (10 μM) expressed as the percentage of control in the absence of A41. […] (D) Immunoblot analysis and corresponding quantification of AKT and P44/42 expression and phosphorylation (pAKT, p44/42) in MDA-MB-468 Luc cells in the absence (−) and presence of NSC23766 or A41 (1 h at 10^−5 M). […] (E) 3D invasion assay of MDA-MB-468 Luc and cancer-associated fibroblasts (CAFs) and corresponding quantification (scale bars: 200 μm).
After indicated treatments, cells were fixed with 4% paraformaldehyde and permeabilized in PBS 0.5% Triton X-100. To assess RAC1 activity, cells were then incubated with RAC-GTP antibody (26903, NewEast Biosciences, King of Prussia, Pa) (dilution 1/500) overnight at room temperature, followed by secondary Alexa 568-labeled anti-mouse antibody (dilution 1/1000). Cancer cells were detected with firefly luciferase antibody (ab21176, Abcam) (dilution 1/500) overnight at room temperature, followed by secondary Alexa 488-labeled anti-rabbit antibody (dilution 1/1000). To assess cytoskeleton organization, cells were incubated with Alexa Fluor 488 phalloidin (A12379, Invitrogen) to visualize F-actin. After staining, cells were mounted in Prolong gold antifade reagent with DAPI and images were captured by a fluorescence microscope.

RAC1 [4] = target: T1, RAC1 (Mus musculus, UniProt P63001); test: RAC-GTP pull-down assay, EGF-stimulated NIH/3T3 fibroblasts; type: cell-based; details: 10^-5 M
T1 construct: endogenous in cells; host or cells: NIH/3T3 fibroblasts (ATCC CRL-1658), EGF-stimulated
Experimental: as §1, with “In the GDP-binding pocket, A4 establishes 6 hydrogen bonds with Gly15 (G15), Lys16 (K16), Cys18 (C18), and Lys116 (K116), 1 carbon hydrogen bond with Lys116, and 9 hydrophobic interactions with Cys18, Ile33 (I33), Lys116, Leu119 (L119), and Leu160 (L160), resulting in a docking score of −10.32 kcal/mol.” left out
Pull-down assay using GST-PBD fusion proteins were performed on NIH-3T3 lysates to assess RAC1 activity as previously described.[63] The precipitated active RAC was subjected to SDS-PAGE and detected by immunoblot with anti-RAC1 antibody (BD biosciences) (dilution 1/1000). […]
screening molecules (10^-5 M) on NIH/3T3 cell adhesion (xCELLingence Real-time cellanalysis, Agilent), migration (CYTOO Mobility plates) and proliferation (xCELLingence Real-time cell analysis, Agilent) .The level of RAC activation is determinedby the detection of RAC-GTP (pull-down assay) in NIH/3T3 cell treated with EGF (10 ng/mL) and the differentmolecules and normalize to the level of RAC activity measuredin the presenceof the reference RAC inhibitor EHT1864.

NIH/3T3 cell migration = test: 1D cell migration (CYTOO plates); type: cell-based; details: 10^-5 M
Experimental: NIH3T3cells (1000/well) were seeded in a 96 well plate with […] fibronectin stripes (CytooPlates Motility, CYTOO) in medium with 1% SVF and allowed to spread for 4 h before capturing time-lapse images for 24 h (image/10 min) on a Widefield Leica DMI 6000B drove with Metamorph software. Cells speed was measured with ImageJ software.
as §2, with “The pharmacophoremodel was completedby thirteen exclusion spheres centered on the main residues of RAC1 defining the binding site. The P loop, the switch 1 and the switch 2 are shown in yellow, orange and green respectively.” left out
as §3

| SMILES | Inhibition of RAC1 activity (nucleotide exchange assay) (RAC1 [1]) | Proliferation (% ctrl) [2] | Adhesion (% inhib) (NIH/3T3 cell adhesion) | effect on RAC1 activity [3] | Rac-GTP level (relative to EHT1864) (RAC1 [4]; EGF 10 ng/mL) | Migration (% inhib) (NIH/3T3 cell migration) | RAC1 activation (active GTP-bound RAC1) (RAC1 [4]; 1 h, EGF 10 ng/mL 5 min) |
| --- | --- | --- | --- | --- | --- | --- | --- |
| COc1ccc(OC)c(NS(=O)(=O)c2ccc(NC(=O)CCSc3ccc(N=[N+]=[N-])cc3)cc2)c1 [[N3]-A41] | 46% |  |  |  |  |  |  |
| O=c1cc(CN2CCOCC2)occ1OCCCCCSc1ccnc2cc(C(F)(F)F)ccc12 [EHT1864] |  | 101% | 32% | no | 1.00 | 35% |  |
| CCN(CC)CCCC(C)Nc1nc(C)cc(Nc2ccc3nc(C)cc(N)c3c2)n1 (centres unmarked) [NSC23766] |  | 131% | 34% | little effect |  | 20% | no significant effect |
